From ChEMBL document CHEMBL1201862, “PubChem BioAssay data set” (2004) come the findings set out here.

Some test systems named below: A549; NCI-H23; SF-268; HOP-62; MOLT-4; DU-145; HCT-15; K562; MCF7; NCI-H226; OVCAR-8; HCC 2998; OVCAR-3; SN12C; A498; LOX IMVI; MDA-N; SK-MEL-28; Hs-578T; DLD-1.
What all share (experiment): NCI-60 cell line screen, 48 h

SMILES strings stand for the structures.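 Assay format: 96-well plates, 48-hour exposure. At the GI50, growth is halved.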 Active and inactive are the calls of the source. Cut-off read from the data, not from the text of the source: active = GI50 up to about 1.1 µM and inactive = higher. Bounds are passed on as bounds.

Take `COc1ccc(/C=C/C=C2C(=O)NC(=S)NC2=O)cc1`: the GI50 in the assay on A549 is 20.3 µM (inactive); with NCI-H23, 9.71 µM (inactive); in the assay with SF-268, 4.68 µM (inactive); in the assay with HOP-62, 19.4 µM (inactive); with MOLT-4, 2.64 µM (inactive); with DU-145 it was 6.03 µM (inactive). The GI50 is 3.64 µM in the assay on HCT-15; 2.21 µM (inactive) in the assay with K562; 7.74 µM (inactive) in the assay with MCF7; 15.7 µM (inactive) in the assay with NCI-H226; 4.03 µM (inactive) in the assay with OVCAR-8; 8.15 µM (inactive) in the assay on HCC 2998. Also, the GI50 was 6.78 µM (inactive) in the assay on OVCAR-3; 7.35 µM (inactive) in the assay with SN12C; 33.9 µM (inactive) in the assay on A498; 1.89 µM (inactive) in the assay with LOX IMVI; 4.07 µM (inactive) in the assay on MDA-N; 1.76 µM (inactive) with SK-MEL-28. Also, the GI50 in the assay on Hs-578T is 6.44 µM (inactive).

Regarding `COc1cc([C@@H]2c3cc4c(cc3C(N)C3COC(=O)[C@@H]32)OCO4)cc(OC)c1O` (some centres not stated), the GI50 with A549 is 0.337 µM (active); in the assay with NCI-H23, 0.373 µM (active); in the assay with SF-268 it was 0.399 µM (active); with HOP-62, 2.88 µM (inactive); in the assay on DLD-1, 0.377 µM (active); in the assay with MOLT-4, 0.266 µM (active). Moreover, the GI50 in the assay on HCT-15 is 0.324 µM; with K562 it was 0.225 µM (active); with NCI-H226, 0.292 µM (active); in the assay with OVCAR-8, 0.308 µM (active); in the assay on HCC 2998, 0.249 µM (active); in the assay with SN12C, 0.445 µM (active). Moreover, the GI50 in the assay on LOX IMVI is 0.241 µM (active).

Consider `CCOC(=O)/C(C(=O)c1ccc[nH]1)=C1/CCCN1C`, for which the GI50 with A549 is > 100 µM (inactive); in the assay with NCI-H23, > 100 µM (inactive); with SF-268, > 100 µM (inactive); in the assay with HOP-62 it was > 100 µM (inactive); with MOLT-4, 49.5 µM (inactive); in the assay with DU-145, > 100 µM (inactive). Moreover, the GI50 was greater than 100 µM in the assay on HCT-15; > 100 µM (inactive) in the assay on K562; > 100 µM (inactive) in the assay with MCF7; > 100 µM (inactive) in the assay on NCI-H226; > 100 µM (inactive) in the assay with OVCAR-8; > 100 µM (inactive) with HCC 2998. Besides, the GI50 in the assay on OVCAR-3, with SN12C, in the assay on A498, in the assay with LOX IMVI, in the assay on MDA-N and in the assay on SK-MEL-28 was > 100 µM (inactive) each time. Besides, the GI50 in the assay on Hs-578T is > 100 µM (inactive).

Regarding `C=C1CC(Cn2cc(C)c(=O)[nH]c2=O)(c2ccc(Cl)cc2)OC1=O` (configuration not stated), the GI50 was 16.6 µM (inactive) in the assay with A549; 3.3 µM (inactive) in the assay with NCI-H23; 17.1 µM (inactive) in the assay on SF-268; 15.8 µM (inactive) with HOP-62; 0.94 µM (active) with MOLT-4; 4.65 µM (inactive) in the assay on DU-145. Besides, the GI50 with HCT-15 was 0.867 µM; with K562, 0.673 µM (active); with MCF7 it was 0.933 µM (active); in the assay on NCI-H226 it was 13.4 µM (inactive); in the assay on OVCAR-8 it was 3.64 µM (inactive); with HCC 2998 it was 3.8 µM (inactive). Further, the GI50 is 3.6 µM (inactive) in the assay on OVCAR-3; 7.05 µM (inactive) in the assay with SN12C; 5.94 µM (inactive) with A498; 1.56 µM (inactive) with LOX IMVI; 2.99 µM (inactive) with MDA-N; 2.18 µM (inactive) with SK-MEL-28. In addition, the GI50 in the assay with Hs-578T is 6.58 µM (inactive).

Take `COc1cc2oc3cc(=O)cc4oc(-c5ccccc5)cc(c2c2c1CCC(c1ccccc1)O2)c43` (configuration not stated): the GI50 is 72.8 µM (inactive) with A549; 62.8 µM (inactive) in the assay with NCI-H23; > 100 µM (inactive) in the assay with SF-268; 41 µM (inactive) with HOP-62; 8.95 µM (inactive) in the assay on MOLT-4; 24.3 µM (inactive) with DU-145. The GI50 in the assay on HCT-15 is 20.4 µM; in the assay on K562, 33 µM (inactive); in the assay on MCF7, 7.66 µM (inactive); in the assay with NCI-H226 it was > 100 µM (inactive); in the assay on OVCAR-8 it was 50 µM (inactive); with HCC 2998, 34.2 µM (inactive). The GI50 was 26 µM (inactive) in the assay on OVCAR-3; 25.2 µM (inactive) with SN12C; 50.4 µM (inactive) in the assay on A498; 31.9 µM (inactive) in the assay with LOX IMVI; 22 µM (inactive) in the assay with MDA-N; 40.7 µM (inactive) in the assay on SK-MEL-28. Moreover, the GI50 in the assay on Hs-578T is 85.9 µM (inactive).

Turning to `CC(C)(C)c1cc(C(C)(C)C)c(P=C(Cl)Cl)c(C(C)(C)C)c1` (configuration not stated), the GI50 in the assay on A549, in the assay with NCI-H23, in the assay with SF-268, with HOP-62, in the assay with MOLT-4 and in the assay with DU-145 was > 100 µM (inactive) each time. Also, the GI50 was greater than 100 µM with HCT-15; 0.0478 µM (active) in the assay with K562; > 100 µM (inactive) in the assay with MCF7; > 100 µM (inactive) with NCI-H226; > 100 µM (inactive) in the assay with OVCAR-8; > 100 µM (inactive) in the assay with HCC 2998. Besides, the GI50 in the assay with OVCAR-3, in the assay with SN12C, with A498, in the assay with LOX IMVI, with MDA-N and in the assay on SK-MEL-28 was > 100 µM (inactive) each time. For the same molecule, the GI50 in the assay on Hs-578T was > 100 µM (inactive).

For `C[C@@H](C[C@@H](O)[C@H](O)C(C)(C)O)[C@H]1CC=C2[C@]3(C)[C@H](O)C[C@H]4C(C)(C)[C@H](O)CC[C@]4(C)[C@H]3CC[C@@]21C`, the GI50 with A549 was 12.7 µM (inactive); with NCI-H23 it was 17.6 µM (inactive); with SF-268 it was 13.4 µM (inactive); in the assay on HOP-62, 15 µM (inactive); in the assay with MOLT-4, 11.1 µM (inactive); in the assay with DU-145 it was 16.9 µM (inactive). Besides, the GI50 with HCT-15 was 14.7 µM; in the assay on K562, 15.7 µM (inactive); with MCF7, 17.2 µM (inactive); in the assay on NCI-H226, 20.7 µM (inactive); with OVCAR-8, 16.1 µM (inactive); in the assay with HCC 2998 it was 17.3 µM (inactive). Besides, the GI50 was 13.3 µM (inactive) in the assay with OVCAR-3; 15.7 µM (inactive) in the assay with SN12C; 15.2 µM (inactive) with A498; 15.8 µM (inactive) in the assay on LOX IMVI; 15.6 µM (inactive) with MDA-N; 14.4 µM (inactive) in the assay on SK-MEL-28. Moreover, the GI50 with Hs-578T was 22.5 µM (inactive).

Consider `CCOC(=O)[C@@]1(C(C)=O)CC(C)=C(C)C[S@@+]1[O-]`, for which the GI50 in the assay with A549, in the assay with NCI-H23, in the assay on SF-268, in the assay with HOP-62, with MOLT-4 and in the assay on DU-145 was > 100 µM (inactive) throughout. Also, the GI50 with HCT-15 is greater than 100 µM; in the assay with K562, > 100 µM (inactive); with MCF7 it was > 100 µM (inactive); in the assay on NCI-H226, > 100 µM (inactive); in the assay with OVCAR-8, > 100 µM (inactive); in the assay on HCC 2998, > 100 µM (inactive). For the same molecule, the GI50 in the assay with OVCAR-3, with SN12C, in the assay on A498, in the assay with LOX IMVI, in the assay on MDA-N and in the assay with SK-MEL-28 was > 100 µM (inactive) in each case. For the same molecule, the GI50 in the assay on Hs-578T was > 100 µM (inactive).

Regarding `CCN(CC)C(=S)SC(=S)N(CC)CC`, the GI50 is 28.5 µM (inactive) in the assay on A549; 26.2 µM (inactive) in the assay with NCI-H23; 41.9 µM (inactive) in the assay on SF-268; 53.7 µM (inactive) with HOP-62; 26.4 µM (inactive) with MOLT-4; 55.8 µM (inactive) in the assay on DU-145. For the same molecule, the GI50 is 55 µM in the assay with HCT-15; 28 µM (inactive) in the assay with K562; 34.8 µM (inactive) in the assay with MCF7; 33.7 µM (inactive) in the assay with NCI-H226; 31.6 µM (inactive) in the assay on OVCAR-8; 1.93 µM (inactive) in the assay with HCC 2998. Besides, the GI50 was 37 µM (inactive) with OVCAR-3; > 54.3 µM (inactive) in the assay with SN12C; 47.3 µM (inactive) in the assay with A498; 23.4 µM (inactive) in the assay on LOX IMVI; 43.4 µM (inactive) in the assay on MDA-N; 36.6 µM (inactive) with SK-MEL-28. In the assay on Hs-578T, the GI50 is 50.7 µM (inactive).

On to `C=C[C@@]1(O)CCCC2=C(C(=O)OCC)CC[C@]21C`, for which the GI50 is > 100 µM (inactive) in the assay with A549; > 100 µM (inactive) with NCI-H23; > 100 µM (inactive) with SF-268; > 100 µM (inactive) in the assay with DLD-1; 26.1 µM (inactive) with MOLT-4; greater than 100 µM with HCT-15. Also, the GI50 in the assay on K562 is 30.8 µM (inactive); with NCI-H226, > 100 µM (inactive); in the assay on OVCAR-8, > 100 µM (inactive); with HCC 2998, > 100 µM (inactive); in the assay with OVCAR-3, > 100 µM (inactive); in the assay on SN12C, > 100 µM (inactive). For the same molecule, the GI50 with SK-MEL-28 is > 100 µM (inactive).

With `C=C1C(=O)O[C@H]2C3C(=C(C)CC[C@@H]12)C(=O)[C@@H]1OC31C` (some centres not stated), the GI50 was 13 µM (inactive) with A549; 2.21 µM (inactive) in the assay with NCI-H23; 5.19 µM (inactive) in the assay with SF-268; 14.8 µM (inactive) in the assay on HOP-62; 1.36 µM (inactive) in the assay with MOLT-4; 12.5 µM (inactive) in the assay with DU-145. Also, the GI50 was 1.66 µM in the assay with HCT-15; 0.698 µM (active) with K562; 1.8 µM (inactive) with MCF7; 7.48 µM (inactive) with NCI-H226; 2.18 µM (inactive) in the assay on OVCAR-8; 14.7 µM (inactive) in the assay on HCC 2998. The GI50 with OVCAR-3 is 2 µM (inactive); in the assay on SN12C, 1.63 µM (inactive); with A498, 11.4 µM (inactive); in the assay on LOX IMVI, 2.11 µM (inactive); in the assay with MDA-N, 1.75 µM (inactive); in the assay with SK-MEL-28 it was 2.34 µM (inactive). The GI50 in the assay on Hs-578T was 3.03 µM (inactive).
